pKi: −log10 of the molar value.
Biological target: T1, nuclear factor-kappa B (NF-kB)-inducing kinase (NIK) (Homo sapiens, UniProt Q99558)
T1 construct: made in house; host or cells: baculovirus-infected insect cells
Experiment: NIK Enzyme Inhibition Assay (Transcreener ADP assay)
Assay type: biochemical
Conditions: purified NIK 0.2-1 nM, 10 uM ATP, fluorescence polarization, Morrison's quadratic equation; read-out: inhibitory value (Ki) for NIK

T1 sequence (Q99558 whole entry): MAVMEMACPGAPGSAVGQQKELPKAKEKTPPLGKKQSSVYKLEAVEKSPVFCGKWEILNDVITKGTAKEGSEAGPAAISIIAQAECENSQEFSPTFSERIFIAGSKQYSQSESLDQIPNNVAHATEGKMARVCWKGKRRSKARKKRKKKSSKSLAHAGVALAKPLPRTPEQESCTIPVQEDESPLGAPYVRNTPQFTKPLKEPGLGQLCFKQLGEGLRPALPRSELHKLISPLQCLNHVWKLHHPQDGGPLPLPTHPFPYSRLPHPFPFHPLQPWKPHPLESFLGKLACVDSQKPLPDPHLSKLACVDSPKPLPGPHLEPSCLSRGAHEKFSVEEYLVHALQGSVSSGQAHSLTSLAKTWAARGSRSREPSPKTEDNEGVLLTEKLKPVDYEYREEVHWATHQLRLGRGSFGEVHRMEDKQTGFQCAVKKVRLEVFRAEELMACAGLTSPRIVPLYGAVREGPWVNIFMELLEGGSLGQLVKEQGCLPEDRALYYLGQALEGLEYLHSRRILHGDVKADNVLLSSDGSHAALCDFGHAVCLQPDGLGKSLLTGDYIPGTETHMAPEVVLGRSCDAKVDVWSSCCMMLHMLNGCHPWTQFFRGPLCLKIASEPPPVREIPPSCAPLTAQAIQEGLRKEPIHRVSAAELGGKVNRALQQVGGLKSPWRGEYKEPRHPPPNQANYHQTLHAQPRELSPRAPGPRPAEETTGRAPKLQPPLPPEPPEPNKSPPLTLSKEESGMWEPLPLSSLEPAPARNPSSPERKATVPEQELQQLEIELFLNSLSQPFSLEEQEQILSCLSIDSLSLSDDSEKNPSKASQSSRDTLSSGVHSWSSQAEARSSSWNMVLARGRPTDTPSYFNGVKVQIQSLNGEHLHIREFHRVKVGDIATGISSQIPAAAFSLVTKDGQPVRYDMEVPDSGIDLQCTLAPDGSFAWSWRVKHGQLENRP

Row | SMILES | pKi
1 | CC(O)(C#Cc1ccc2c(C(=O)N3CC4CC3CO4)nn(-c3ccnc(N)n3)c2c1)c1ncccn1 (stereo not drawn) [Example T1.1-66, [1-(2-aminopyrimidin-4-yl)-6-(3-hydroxy-3-pyrimidin-2-yl-but-1-ynyl)indazol-3-yl]-(2-oxa-5-azabicyclo[2.2.1]heptan-5-yl)methanone] | 8.15
2 | CC(C)(O)c1nn(-c2ccnc(N)n2)c2cc(C#CC3(O)CCc4cccnc43)ccc12 (stereo not drawn) [Example T1.1-67, 7-[2-[1-(2-aminopyrimidin-4-yl)-3-(1-hydroxy-1-methyl-ethyl)indazol-6-yl]ethynyl]-5,6-dihydrocyclopenta[b] pyridin-7-ol] | 8.10
3 | Cc1nc([C@](C)(O)C#Cc2ccc3c(C(=O)N4CCC(F)CC4)nn(-c4nc(N)ncc4Cl)c3c2)no1 [Example T1.1-68, [1-(2-amino-5-chloro-pyrimidin-4-yl)-6-[(3R)-3-hydroxy-3-(5-methyl-1,2,4-oxadiazol-3-yl)but-1-ynyl]indazol-3-yl]-(4-fluoro-1-piperidyl)methanone] | 8.05
4 | CC1CN(C(=O)c2nn(-c3ccnc(N)n3)c3cc(C#CC(C)(O)c4ncccn4)ccc23)CC(C)O1 (stereo not drawn) [Example T1.1-69, [1-(2-aminopyrimidin-4-yl)-6-(3-hydroxy-3-pyrimidin-2-yl-but-1-ynyl)indazol-3-yl]-(2,6-dimethylmorpholin-4-yl) methanone] | 8.05
5 | Cc1cc(C(C)(O)C#Cc2ccc3nc(OCC4COC(C)(C)O4)n(-c4ccnc(N)n4)c3c2)no1 (stereo not drawn) [Example T1.1-70, 4-[3-(2-aminopyrimidin-4-yl)-2-[(2,2-dimethyl-1,3-dioxolan-4-yl)methoxy]benzimidazol-5-yl]-2-(5-methylisoxazol-3-yl)but-3-yn-2-ol] | 8.05
6 | Cc1nc([C@](C)(O)C#Cc2ccc3c(C(=O)N4CCCCC4)nn(-c4nc(N)ncc4Cl)c3c2)no1 [Example T1.1-71, [1-(2-amino-5-chloro-pyrimidin-4-yl)-6-[(3R)-3-hydroxy-3-(5-methyl-1,2,4-oxadiazol-3-yl)but-1-ynyl]indazol-3-yl]-(1-piperidyl)methanone] | 8.00
7 | CC(O)(C#Cc1ccc2nc(OC3COC3)n(-c3ccnc(N)n3)c2c1)c1ncccn1 (stereo not drawn) [Example T1.1-72, 4-[3-(2-aminopyrimidin-4-yl)-2-(oxetan-3-yloxy)benzimidazol-5-yl]-2-pyrimidin-2-yl-but-3-yn-2-ol] | 7.92
8 | Cc1nn(-c2ccnc(N)n2)c2cc(C#CC(C)(O)c3cc[nH]n3)ccc12 (stereo not drawn) [Example T1.1-73, 4-[1-(2-aminopyrimidin-4-yl)-3-methyl-indazol-6-yl]-2-(1H-pyrazol-3-yl)but-3-yn-2-ol] | 7.92
9 | CC1CN(C(=O)c2nn(-c3ccnc(N)n3)c3cc(C#CC(C)(O)c4ncccn4)ccc23)CC(C)O1 (stereo not drawn) [Example T1.1-74, [1-(2-aminopyrimidin-4-yl)-6-(3-hydroxy-3-pyrimidin-2-yl-but-1-ynyl)indazol-3-yl]-(2,6-dimethylmorpholin-4-yl) methanone] | 7.89
10 | CC(O)(C#Cc1ccc2c(C(=O)N3CCOCC3)nn(-c3ccnc(N)n3)c2c1)CF (stereo not drawn) [Example T1.1-75, [1-(2-aminopyrimidin-4-yl)-6-(4-fluoro-3-hydroxy-3-methyl-but-1-ynyl)indazol-3-yl]-morpholino-methanone] | 7.85
11 | Cc1nn(-c2ccnc(N)n2)c2cc(C#CC(C)(O)c3cocn3)ccc12 (stereo not drawn) [Example T1.1-76, 4-[1-(2-aminopyrimidin-4-yl)-3-methyl-indazol-6-yl]-2-oxazol-4-yl-but-3-yn-2-ol] | 7.80
12 | CC(O)(C#Cc1ccc2c(CN3CCOCC3)nn(-c3ccnc(N)n3)c2c1)c1ncccn1 (stereo not drawn) [Example T1.1-78, 4-[1-(2-aminopyrimidin-4-yl)-3-(morpholinomethyl)indazol-6-yl]-2-pyrimidin-2-yl-but-3-yn-2-ol] | 7.70
13 | Cc1cc(C(C)(O)C#Cc2ccc3c(C(NC4CCCC4)C4CC4)nn(-c4ccnc(N)n4)c3c2)no1 (stereo not drawn) [Example T1.1-79, 4-[1-(2-aminopyrimidin-4-yl)-3-[(cyclopentylamino)-cyclopropyl-methyl]indazol-6-yl]-2-(5-methyl-isoxazol-3-yl)but-3-yn-2-ol] | 7.70
14 | Cc1nc([C@](C)(O)C#Cc2ccc3c(c2)n(-c2ccnc(N)n2)c(=O)n3CC2CC2)no1 [Example T1.1-81, 3-(2-aminopyrimidin-4-yl)-1-(cyclopropylmethyl)-5-[(3R)-3-hydroxy-3-(5-methyl-1,2,4-oxadiazol-3-yl)but-1-ynyl] benzimidazol-2-one] | 7.62
15 | Cc1noc(C(C)(O)C#Cc2ccc3c(C(=O)N(C)C)nn(-c4ccnc(N)n4)c3c2)n1 (stereo not drawn) [Example T1.1-82, 1-(2-aminopyrimidin-4-yl)-6-[3-hydroxy-3-(3-methyl-1,2,4-oxadiazol-5-yl)but-1-ynyl]-N,N-dimethyl-indazole-3-carboxamide] | 7.60
16 | Cn1cnc(C(C)(O)C#Cc2ccc3c(C(=O)N4CCOCC4)nn(-c4ccnc(N)n4)c3c2)n1 (stereo not drawn) [Example T1.1-83, [1-(2-aminopyrimidin-4-yl)-6-[3-hydroxy-3-(1-methyl-1,2,4-triazol-3-yl)but-1-ynyl]indazol-3-yl]-morpholino-methanone] | 7.60
17 | COCc1cc(C(C)(O)C#Cc2ccc3c(C(=O)N4CCOCC4)nn(-c4ccnc(N)n4)c3c2)no1 (stereo not drawn) [Example T1.1-84, [1-(2-aminopyrimidin-4-yl)-6-[3-hydroxy-3-[5-(methoxymethyl)isoxazol-3-yl]but-1-ynyl]indazol-3-yl]-morpholino-methanone] | 7.57

Row | SMILES | pKi
18 | Cc1cc(C(C)(O)C#Cc2ccc3c(C(NC4CCCC4)C4CC4)nn(-c4ccnc(N)n4)c3c2)no1 (stereo not drawn) [Example T1.1-85, 4-[1-(2-aminopyrimidin-4-yl)-3-[(cyclopentylamino)-cyclopropyl-methyl]indazol-6-yl]-2-(5-methyl-isoxazol-3-yl)but-3-yn-2-ol] | 7.57
19 | Nc1nccc(-n2nc(C(=O)N3CCOCC3)c3ccc(C#CC(O)(CF)CF)cc32)n1 [Example T1.1-86, [1-(2-aminopyrimidin-4-yl)-6-[4-fluoro-3-(fluoromethyl)-3-hydroxy-but-1-ynyl]indazol-3-yl]-morpholino-methanone] | 7.51
20 | Cn1cc(-c2cnc(N)nc2-n2ncc3ccc(C#CC(C)(C)O)cc32)cn1 [Example T1.1-87, 4-[1-[2-amino-5-(1-methyl-pyrazol-4-yl)pyrimidin-4-yl]indazol-6-yl]-2-methyl-but-3-yn-2-ol] | 7.41
21 | Cc1cc([C@@](C)(O)C#Cc2ccc3c(C(=O)N4CCOCC4)nn(-c4ccnc(N)n4)c3c2)no1 [Example T1.1-88, [1-(2-aminopyrimidin-4-yl)-6-[(3S)-3-hydroxy-3-(5-methylisoxazol-3-yl)but-1-ynyl]indazol-3-yl]-morpholino-methanone] | 7.34
22 | CN1CCN(C(=O)c2nn(-c3ccnc(N)n3)c3cc(C#CC(C)(O)c4ncccn4)ccc23)CC1 (stereo not drawn) [Example T1.1-89, [1-(2-aminopyrimidin-4-yl)-6-(3-hydroxy-3-pyrimidin-2-yl-but-1-ynyl)indazol-3-yl]-(4-methylpiperazin-1-yl)methanone] | 7.28
23 | Cc1nn(-c2ccnc(N)n2)c2cc(C#CC(C)(O)c3nccn3C)ccc12 (stereo not drawn) [Example T1.1-90, 4-[1-(2-aminopyrimidin-4-yl)-3-methyl-indazol-6-yl]-2-(1-methyl-imidazol-2-yl)but-3-yn-2-ol] | 7.27
24 | Cc1cnc(C(C)(O)C#Cc2ccc3c(C)nn(-c4ccnc(N)n4)c3c2)cn1 (stereo not drawn) [Example T1.1-91, 4-[1-(2-aminopyrimidin-4-yl)-3-methyl-indazol-6-yl]-2-(5-methyl-pyrazin-2-yl)but-3-yn-2-ol] | 7.16
25 | CC(C)(O)C#Cc1ccc2cnn(-c3nc(N)ncc3-c3cn[nH]c3)c2c1 [Example T1.1-92, 4-[1-[2-amino-5-(1H-pyrazol-4-yl)pyrimidin-4-yl]indazol-6-yl]-2-methyl-but-3-yn-2-ol] | 7.15
26 | Cc1cc(-n2nc(C)c3ccc(C#C[C@@](C)(O)c4noc(C)n4)cc32)nc(N)n1 [Example T1.1-93, (2R)-4-[1-(2-amino-6-methyl-pyrimidin-4-yl)-3-methyl-indazol-6-yl]-2-(5-methyl-1,2,4-oxadiazol-3-yl)but-3-yn-2-ol] | 7.11
27 | Cc1cc(-n2nc(C)c3ccc(C#CC(C)(O)c4ncccn4)cc32)nc(N)n1 (stereo not drawn) [Example T1.1-94, 4-[1-(2-amino-6-methyl-pyrimidin-4-yl)-3-methyl-indazol-6-yl]-2-pyrimidin-2-yl-but-3-yn-2-ol] | 7.07
28 | Cn1ccc(C(C)(O)C#Cc2ccc3c(C(C)(C)O)nn(-c4ccnc(N)n4)c3c2)n1 (stereo not drawn) [Example T1.1-95, 4-[1-(2-aminopyrimidin-4-yl)-3-(1-hydroxy-1-methyl-ethyl)indazol-6-yl]-2-(1-methylpyrazol-3-yl)but-3-yn-2-ol] | 7.06
29 | CC(C)(O)C#Cc1ccc2nc(OC3COC3)n(-c3ccnc(N)n3)c2c1 [Example T1.1-96, 4-[3-(2-aminopyrimidin-4-yl)-2-(oxetan-3-yloxy)benzimidazol-5-yl]-2-methyl-but-3-yn-2-ol] | 7.00
30 | Cc1cc(C(C)(O)C#Cc2ccc3nc(OC4CN(CCO)C4)n(-c4ccnc(N)n4)c3c2)no1 (stereo not drawn) [Example T1.1-97, 4-[3-(2-aminopyrimidin-4-yl)-2-[1-(2-hydroxyethyl)azetidin-3-yl]oxy-benzimidazol-5-yl]-2-(5-methyl-isoxazol-3-yl)but-3-yn-2-ol] | 6.99
31 | Cc1nn(-c2ccnc(N)n2)c2cc(C#CC(C)(O)c3ncc[nH]3)ccc12 (stereo not drawn) [Example T1.1-98, 4-[1-(2-aminopyrimidin-4-yl)-3-methyl-indazol-6-yl]-2-(1H-imidazol-2-yl)but-3-yn-2-ol] | 6.95
32 | Cc1nc2ccc(C#CC(C)(O)CC3CC3)cc2n1-c1ncnc(N)n1 (stereo not drawn) [Example T1.1-99, 4-[3-(4-amino-1,3,5-triazin-2-yl)-2-methyl-benzimidazol-5-yl]-1-cyclopropyl-2-methyl-but-3-yn-2-ol] | 6.89
33 | Cc1nc2ccc(C#CC(C)(O)CO)cc2n1-c1ncnc(N)n1 (stereo not drawn) [Example T1.1-100, 4-[3-(4-amino-1,3,5-triazin-2-yl)-2-methyl-benzimidazol-5-yl]-2-methyl-but-3-yne-1,2-diol] | 6.89

From US8901313B2, “6,5-heterocyclic propargylic alcohol compounds and uses therefor” (Genentech, Inc., priority 2011, dated 2014)
